From patent US9345682B2, “Inhibition of STAT3 signal transduction for human cancer therapy” (University of South Florida, priority 1999, dated 2016)
“Also recorded” adds a separate entry of the source.

What was measured:
MOPC tumors = experiment: TUNEL assay of MOPC tumors; assay type: in vivo, BALB/c mice; conditions: regressing MOPC tumors
Experimental: Terminal deoxynucleotidyltransferase-mediated dUTP-Digoxigenin nick-end-labeling (TUNEL) assay. MOPC tumors that receive either AG-490 or 50% DMSO treatment are used for this assay. Three-μm sections from paraffinized tissues are dewaxed and rehydrated according to standard protocols. After incubation with proteinase K (30 min at 21° C.), the TUNEL reaction mixture (Boehringer Mannheim, Indianapolis, Ind.) is added to rinsed slides, which are incubated in a humidified chamber for […] at 37° C. This is followed by incubating with Converter-AP (50 ml) and substrate solution (50 ml). The reaction is visualized by light microscopy.

peritoneal macrophages = experiment: IL-12-mediated nitric oxide production by macrophages treated in vitro; assay type: cell-based, mice; conditions: in vitro treatment of macrophages, 50 mM AG-490
Experimental: Nitric oxide production. Peritoneal macrophages (2×10^5/0.2 ml/well) from mice with various treatments are incubated 48 hours. Nitrite accumulation in macrophage supernatants were determined using Griess reagent.
(§1) In vitro IL-12 activation and AG-490 treatment of macrophages. Peritoneal macrophages (2×10^5/well) are incubated in medium supplemented with either PBS, or rIL-12 (2 ng/ml), or AG-490 ([…]). Forty-eight hours later, the cultures are renewed by addition of fresh medium with either AG-490 or rIL-12 or PBS. Activation of macrophages is determined by nitric oxide production. Macrophage viability is determined by cleavage of tetrazolium salt in an MTT assay.

U266 cells [1] = experiment: Cell cycle analysis and spontaneous cell death of U266 cells; assay type: cell-based, human
Experimental: (§2) For surface detection of the Fas receptor, 10^6 cells are suspended in […] PBS with 2.5 mg/ml mouse IgM (Sigma) and […] UB2 antibody (MBL) or IgG1, isotype control serum (Dako). Following 30 min incubation at room temperature, cells are washed with PBS, and incubated in the dark for 30 min with goat anti-mouse Ig-FITC. Fluorescence is measured on a FACScan flow cytometer and analyzed using CellQuest software (Becton Dickinson). For cell cycle analysis, 10^6 cells are fixed in ice-cold ethanol for a minimum of 2 h, washed with PBS, and stained with 5 mg/ml propidium iodide (PI) and […] at 37° C. for 30 min prior to analysis by flow cytometry. Sensitivity to Fas-mediated apoptosis is determined by exposing cells to 500 ng/ml agonistic antibody (CH-11, MBL) or 100 ng/ml Fas ligand (Alexis) for 18-24 h. Apoptosis is measured by staining with Annexin V-FITC (Clontech) and flow cytometry analysis. Fas-specific death is calculated as (% Annexin V positive cells in the CH-11 treated population)−(% Annexin V positive cells in the IgM control population). Programmed cell death in cells transfected with the bicistronic green fluorescent protein vectors (pIRES-EGFP or pIRES-Stat3b) is analyzed after staining with Annexin V-PE (Pharmingen) by two color flow cytometry analysis. […]

splenocytes = experiment: IL-12-induced IFN-g production by splenocytes ex vivo; assay type: in vivo; conditions: mice treated i.p. with AG-490 (0.5 mg) daily 4 days, rIL-12 last two days
Experimental: Mice are treated daily with i.p. injections of […] of AG-490 (0.5 mg) or DMSO vehicle (50%) for a total of 4 days. During the last two days of AG-490 or DMSO treatment, daily i.p. injection of 400 ng of recombinant IL-12 (rIL-12) (Genetics Institute, Cambridge, Mass.) is also given simultaneously with either AG-490 or DMSO. Two days after the last treatment of AG-490, single cell suspensions of splenocytes are prepared from individual mice. The splenocytes are treated with 100 U/ml rIL-2 to induce IFN-g production. IFN-g ELISA (Genzyme, Cambridge, Mass.) is performed as described previously (Tan, et al., 1996, Cancer Res 56:3399).

8226 cells = experiment: Fas-mediated apoptosis (Annexin V, flow cytometry) in 8226 cells; assay type: cell-based, human; conditions: IL-6-independent 8226 cells, AG490 treatment
Experimental: as §2

[2] = test system: IL-12-activated peritoneal macrophages; experiment: Viability of IL-12-activated peritoneal macrophages (MTT); assay type: cell-based, mice; conditions: 50 mM AG-490
Experimental: as §1

MPC11 tumors = experiment: MPC11 myeloma tumor growth in vivo; set-up: species or system BALB/c mice
Experimental: Mice and tumor formation in vivo. Six- to eight-week old female BALB/c mice are obtained from the National Cancer Institute (Frederick, Md.). Cohorts of 3-5 mice per group are used for these experiments. Mice are shaved on the right flank and injected subcutaneously (s.c.) with 5×10^5 of either MOPC or MPC11 cells in […] of PBS to induce tumors.
In vivo treatment with AG-490 and IL-12. When tumors reach about 5 […] in diameter, AG-490 treatment of tumors is initiated and continued daily for 7-10 days. For MOPC tumors, injections of 0.85 mg/day of AG-490 are given intratumorally, supplemented with 0.5 mg/day of AG-490 i.p. For MPC11 tumors, the intratumoral treatment is halved while the i.p. dose remains the same. Control mice receive 50% DMSO vehicle alone in the same volume as the AG-490 treatment group. Recombinant IL-12 is given s.c. at either 100 ng or 200 ng every other day. Tumor growth is monitored daily by measuring two perpendicular tumor diameters with a caliper, and tumor volume was calculated according to the formula V=0.52*a*b(a+b)/2 (a=smallest superficial diameter; b=largest superficial diameter).

U266 cells [3] = experiment: Fas-mediated apoptosis (Annexin V, flow cytometry) in U266 cells; assay type: cell-based, human
Experimental: For surface detection of the Fas receptor, 10^6 cells are suspended in […] PBS with 2.5 mg/ml mouse IgM (Sigma) and […] UB2 antibody (MBL) or IgG1, isotype control serum (Dako). Following 30 min incubation at room temperature, cells are washed with PBS, and incubated in the dark for 30 min with goat anti-mouse Ig-FITC. Fluorescence is measured on a FACScan flow cytometer and analyzed using CellQuest software (Becton Dickinson). For cell cycle analysis, 10^6 cells are fixed in ice-cold ethanol for a minimum of 2 h, washed with PBS, and stained with 5 mg/ml propidium iodide (PI) and […] at 37° C. for 30 min prior to analysis by flow cytometry. […] Apoptosis is measured by staining with Annexin V-FITC (Clontech) and flow cytometry analysis. Fas-specific death is calculated as (% Annexin V positive cells in the CH-11 treated population)−(% Annexin V positive cells in the IgM control population). Programmed cell death in cells transfected with the bicistronic green fluorescent protein vectors (pIRES-EGFP or pIRES-Stat3b) is analyzed after staining with Annexin V-PE (Pharmingen) by two color flow cytometry analysis. Apoptotic morphology of DAPI-stained nuclei and green/red fluorescence is confirmed by fluorescence microscopy.

Compound: N#C/C(=C\c1ccc(O)c(O)c1)C(=O)NCc1ccccc1 [AG490]
- apoptotic tumor cells (TUNEL) (MOPC tumors): high numbers of apoptotic cells
- IL-12-mediated nitric oxide production (peritoneal macrophages): prevents or suppressed
- spontaneous cell death (U266 cells [1]; AG490, 72 hours): extensive spontaneous cell death
- cells accumulating in G1 (U266 cells [1]; AG490 for 48 h): 70%
- IL-12-induced IFN-g production by splenocytes (splenocytes): slight suppression
- sensitivity to Fas-mediated cell death (8226 cells): does not enhance
- cell death of IL-12-activated peritoneal macrophages [2]: no cell death is detected
- time to tumor regrowth or metastasis after termination of treatment (MPC11 tumors; MPC11 tumors): 4 to 7 days
- MPC11 tumor response (MPC11 tumors; pre-existing MPC11 tumors, all treated mice): rapid rejection; also recorded: all of the tumors in AG-490-treated mice regressed
- Fas-specific apoptosis (U266 cells [3]; AG490 24 hours then CH-11 12 hours, 7 independent experiments): 18-41%
- cells undergoing apoptosis (U266 cells [3]; AG490 24 hours then CH-11 additional 12 hours): up to 90%
